Results reported in PubChem BioAssay (NCI).
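GI50 marks 50% less growth. Definition used: TGI = concentration required for complete inhibition of growth.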

What was measured:
Test in all cases: NCI anticancer screen, dose series, 384-well format
[1] = tested on: 786-0 renal
[2] = tested on: A498 renal
[3] = tested on: A549 NSCLC
[4] = tested on: ACHN renal
[5] = tested on: BT-549 breast
[6] = tested on: CAKI-1 renal
[7] = tested on: CCRF-CEM leukemia
[8] = tested on: COLO 205 colon
[9] = tested on: DU-145 prostate
[10] = tested on: EKVX NSCLC
[11] = tested on: HCC-2998 colon
[12] = tested on: HCT-116 colon
[13] = tested on: HL-60(TB) leukemia
[14] = tested on: HOP-62 NSCLC
[15] = tested on: HOP-92 NSCLC
[16] = tested on: HS 578T breast
[17] = tested on: HT29 colon
[18] = tested on: IGROV1 ovarian
[19] = tested on: K-562 leukemia
[20] = tested on: LOX IMVI melanoma
[21] = tested on: M14 melanoma
[22] = tested on: MALME-3M melanoma
[23] = tested on: MCF7 breast
[24] = tested on: MDA-MB-231 breast
[25] = tested on: MDA-MB-435 melanoma
[26] = tested on: MDA-MB-468 breast
[27] = tested on: MOLT-4 leukemia
[28] = tested on: NCI-H226 lung
[29] = tested on: NCI-H23 lung
[30] = tested on: NCI-H322M lung
[31] = tested on: NCI-H460 NSCLC
[32] = tested on: NCI-H522 lung
[33] = tested on: NCI/ADR-RES ovarian
[34] = tested on: OVCAR-3 ovarian
[35] = tested on: OVCAR-4 ovarian
[36] = tested on: OVCAR-8 ovarian
[37] = tested on: PC-3 prostate
[38] = tested on: RPMI-8226 leukemia
[39] = tested on: RXF 393 renal
[40] = tested on: SF-268 CNS
[41] = tested on: SF-295 CNS
[42] = tested on: SF-539 CNS
[43] = tested on: SK-MEL-28 melanoma
[44] = tested on: SK-MEL-5 melanoma
[45] = tested on: SK-OV-3 ovarian
[46] = tested on: SN12C renal
[47] = tested on: SNB-19 CNS
[48] = tested on: SNB-75 CNS
[49] = tested on: SR leukemia
[50] = tested on: SW-620 colon
[51] = tested on: T-47D breast
[52] = tested on: TK-10 renal
[53] = tested on: U251 glioblastoma
[54] = tested on: UACC-257 melanoma
[55] = tested on: UACC-62 melanoma
[56] = tested on: UO-31 renal

Molecule `C[C@@H]1COCCN1c1cc(-c2ccnn2C)c2ccnc(-c3ccn[nH]3)c2n1` has a GI50 [1] of 37.3 nM, a TGI [1] of 191 nM and a GI50 [2] of 19.3 nM. The TGI [2] was 67.7 nM, the GI50 [3] was 104 nM and the TGI [3] was 2230 nM. For the same molecule, the GI50 [4] was 49.8 nM, the TGI [4] was 225 nM and the GI50 [5] was 22.2 nM. It also gave a TGI [5] of 87.1 nM, a GI50 [6] of 142 nM and a TGI [6] of 1800 nM. For the same molecule, the GI50 [7] was under 10 nM, the TGI [7] was 21.5 nM and the GI50 [8] was 286 nM. The TGI [8] was 2580 nM, the GI50 [9] was 53 nM and the TGI [9] was 16300 nM. It also gave a GI50 [10] of 124 nM, a TGI [10] of 2480 nM and a GI50 [11] of under 10 nM. The TGI [11] was 18 nM, the GI50 [12] was 32.9 nM and the TGI [12] was 7970 nM. It also gave a GI50 [13] of 26.8 nM, a TGI [13] of 83.9 nM and a GI50 [14] of 28 nM. For the same molecule, the TGI [14] was 155 nM, the GI50 [15] was 36.2 nM and the TGI [15] was 339 nM. For the same molecule, the GI50 [16] was 16.7 nM, the TGI [16] was 46.5 nM and the GI50 [17] was 234 nM. For the same molecule, the TGI [17] was 706 nM, the GI50 [18] was 93.2 nM and the TGI [18] was 2490 nM. The GI50 [19] was 40.4 nM, the TGI [19] was 125 nM and the GI50 [20] was 98.4 nM. For the same molecule, the TGI [20] was 1090 nM, the GI50 [21] was 13.2 nM and the TGI [21] was 41.5 nM. It also gave a GI50 [22] of 89.6 nM, a TGI [22] of 985 nM and a GI50 [23] of 18.8 nM. It also gave a TGI [23] of 14200 nM, a GI50 [24] of 353 nM and a TGI [24] of over 100000 nM. The GI50 [25] was 33 nM, the TGI [25] was 456 nM and the GI50 [26] was 192 nM. For the same molecule, the TGI [26] was 973 nM, the GI50 [27] was under 10 nM and the TGI [27] was 15.5 nM. The GI50 [28] was 341 nM, the TGI [28] was 4020 nM and the GI50 [29] was 16.2 nM. For the same molecule, the TGI [29] was 56.3 nM, the GI50 [30] was 21.7 nM and the TGI [30] was 213 nM. It also gave a GI50 [31] of 10.6 nM, a TGI [31] of 515 nM and a GI50 [32] of 411 nM. It also gave a TGI [32] of 10700 nM, a GI50 [33] of 72 nM and a TGI [33] of 270 nM. For the same molecule, the GI50 [34] was 91.1 nM, the TGI [34] was 2620 nM and the GI50 [35] was 39 nM. The TGI [35] was 2720 nM, the GI50 [36] was 61.1 nM and the TGI [36] was 357 nM. For the same molecule, the GI50 [37] was 262 nM, the TGI [37] was 11800 nM and the GI50 [38] was 17.4 nM. The TGI [38] was 45.2 nM, the GI50 [39] was 27.7 nM and the TGI [39] was 105 nM. For the same molecule, the GI50 [40] was 97.4 nM, the TGI [40] was 10500 nM and the GI50 [41] was 36.9 nM. For the same molecule, the TGI [41] was 173 nM, the GI50 [42] was 43.2 nM and the TGI [42] was 259 nM. The GI50 [43] was 1030 nM, the TGI [43] was 13900 nM and the GI50 [44] was 202 nM. For the same molecule, the TGI [44] was 873 nM, the GI50 [45] was 63.5 nM and the TGI [45] was 539 nM. For the same molecule, the GI50 [46] was 273 nM, the TGI [46] was 6650 nM and the GI50 [47] was 282 nM. The TGI [47] was 9470 nM, the GI50 [48] was 264 nM and the TGI [48] was 1760 nM. It also gave a GI50 [49] of under 10 nM, a GI50 [50] of 247 nM and a TGI [50] of 19300 nM. It also gave a GI50 [51] of 389 nM, a TGI [51] of 8100 nM and a GI50 [52] of 28.7 nM. The TGI [52] was 94.1 nM, the GI50 [53] was 123 nM and the TGI [53] was 11900 nM. The GI50 [54] was 1820 nM, the TGI [54] was 14000 nM and the GI50 [55] was 176 nM. It also gave a TGI [55] of 2140 nM, a GI50 [56] of 58.6 nM and a TGI [56] of 828 nM.
